Experimental findings from ChEMBL document CHEMBL1157891, “Methylene amine substituted arylindenopyrimidines as potent adenosine A(2A)/A(1) antagonists” (Bioorg Med Chem Lett, 2010) are described below.

Activity calls are given as the source filed them. The rule behind the calls is not given here.

For one series, the target named is Adenosine receptor A2a (Homo sapiens, UniProt P29274). The series can be described thus: Antagonist activity at adenosine A2A receptor. In kind it is functional.
The next series has as its target T1, Adenosine receptor A1 (Homo sapiens, UniProt P30542).
T1 sequence (P30542 whole entry): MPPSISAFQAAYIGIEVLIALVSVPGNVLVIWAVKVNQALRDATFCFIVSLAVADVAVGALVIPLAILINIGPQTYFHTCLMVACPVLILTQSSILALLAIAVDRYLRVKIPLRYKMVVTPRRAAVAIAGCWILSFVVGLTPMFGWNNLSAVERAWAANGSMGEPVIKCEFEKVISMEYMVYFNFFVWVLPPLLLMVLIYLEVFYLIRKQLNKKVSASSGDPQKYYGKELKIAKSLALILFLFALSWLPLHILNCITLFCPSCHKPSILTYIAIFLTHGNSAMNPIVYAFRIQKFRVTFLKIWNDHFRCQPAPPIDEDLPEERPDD
The series can be described thus: Antagonist activity at adenosine A1 receptor. In kind it is functional.

Series [1] has as its system Mus musculus. The series is described as follows: Inhibition of haloperidol-induced catalepsy in mouse at 10 mg/kg, po. It counts as functional, organism-based. Further details: dose 10 mg/kg.
The subject of series [2] is Mus musculus. The series can be described thus: Inhibition of haloperidol-induced catalepsy in po dosed mouse. In kind it is functional.
A short description of series [3]: Mutagenic activity in Salmonella Typhimurium by Ames assay. It counts as toxicity. As to conditions: salmonella enterica subsp. enterica serovar typhimurium.

Chain of Adenosine receptor A2a (P29274 whole entry): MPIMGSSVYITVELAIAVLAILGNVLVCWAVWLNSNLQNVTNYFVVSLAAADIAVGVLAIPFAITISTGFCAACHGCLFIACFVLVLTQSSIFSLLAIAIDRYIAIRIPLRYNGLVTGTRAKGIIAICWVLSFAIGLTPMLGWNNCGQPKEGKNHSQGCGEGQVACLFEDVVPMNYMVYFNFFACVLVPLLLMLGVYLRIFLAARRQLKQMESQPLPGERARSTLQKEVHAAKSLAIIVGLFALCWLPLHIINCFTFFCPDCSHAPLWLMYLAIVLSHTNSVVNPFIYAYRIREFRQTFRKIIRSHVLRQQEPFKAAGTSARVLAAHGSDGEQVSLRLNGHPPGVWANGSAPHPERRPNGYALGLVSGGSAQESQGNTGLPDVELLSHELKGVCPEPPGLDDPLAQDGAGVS

As a reminder, the Ki is a measure of affinity in units of concentration, obtained from inhibition or displacement. A low value points to a stronger hold on the target. As for `CC1CCC(C)N1Cc1cccc2c1-c1nc(N)nc(-c3ccccc3)c1C2=O` (stereo unspecified), the Ki amounted to 11.3 nM on Adenosine receptor A2a and 140 nM at Adenosine receptor A1. For the same molecule, the inhibition entry in the series on Mus musculus [1] was “inactive”.

By ED50 is commonly meant the dose at which the effect has come halfway, by size or by number of responders. `N#Cc1cccc(-c2nc(N)nc3c2C(=O)c2cccc(CN4CCOCC4)c2-3)c1`: the ED50 in the series with Mus musculus [2] came to 1.7 mg/kg. The results for the Ki at Adenosine receptor A2a and on Adenosine receptor A1 were 5.4 nM and 75 nM, respectively.

`Nc1nc(-c2ccco2)c2c(n1)-c1ccccc1C2=O`: the Activity result in series [3] was “Toxic”. Besides, the ED50 in the series on Mus musculus [2] stood at 5 mg/kg. This molecule had a Ki at Adenosine receptor A1 of 0.4 nM.

Turning to `Nc1nc(-c2ccccc2)c2c(n1)-c1c(CN3CCCC3)cccc1C2=O`, the ED50 with Mus musculus [2] worked out at 3.8 mg/kg. In addition, the Ki was found to be 2.5 nM on Adenosine receptor A2a and 116 nM at Adenosine receptor A1.

`Nc1nc(-c2ccccc2)c2c(n1)-c1c(CN3CCCCC3)cccc1C2=O` returned an ED50 in the series with Mus musculus [2] of 5 mg/kg. Further, the Ki at Adenosine receptor A2a is 14.3 nM; at Adenosine receptor A1 it was 40.8 nM.

In the series with Mus musculus [2], `Nc1nc(-c2ccc(F)cc2)c2c(n1)-c1c(CN3CCOCC3)cccc1C2=O` came in with an ED50 of 1.3 mg/kg. Also, the Ki on Adenosine receptor A2a worked out at 3.8 nM; at Adenosine receptor A1, 155 nM.

Consider `Nc1nc(-c2ccccc2)c2c(n1)-c1ccccc1C2=O`, for which the Activity result in series [3] is “Non-toxic”. For the same molecule, the 50% effect level in the series with Mus musculus [2] (ED50) was put at a dose of 8 mg/kg. In addition, affinity on Adenosine receptor A1 was put at a Ki of 1.1 nM.

With `Nc1nc(-c2ccc(Cl)o2)c2c(n1)-c1ccccc1C2=O`, the figures for the Ki at Adenosine receptor A2a and at Adenosine receptor A1 were 0.2 nM and 0.5 nM, respectively. The inhibition result in the series on Mus musculus [1] is “inactive”.

Take `CCN(CC)Cc1cccc2c1-c1nc(N)nc(-c3ccccc3)c1C2=O`: the Ki on Adenosine receptor A2a came to 18.3 nM; at Adenosine receptor A1, 107 nM. In the series on Mus musculus [1], the inhibition result is “inactive”.

The molecule `Nc1nc(-c2ccccc2)c2c(n1)-c1c(CN3CCOCC3)cccc1C2=O` showed an ED50 with Mus musculus [2] of 5.6 mg/kg. In addition, the Ki was 3.3 nM on Adenosine receptor A2a and 32.9 nM on Adenosine receptor A1.

Turning to `Nc1nc(-c2ccncc2)c2c(n1)-c1ccccc1C2=O`, the inhibition result in the series with Mus musculus [1] was “inactive”.

In the case of `Nc1nc(-c2ccccc2)c2c(n1)-c1c(CN3CCCCCC3)cccc1C2=O`, the Ki on Adenosine receptor A2a came out at 8.6 nM; at Adenosine receptor A1 it was 95.2 nM. In addition, in the series on Mus musculus [1], the inhibition entry was “inactive”.

`CN(C)CCN(C)c1ccc(-c2nc(N)nc3c2C(=O)c2ccccc2-3)o1`: the Activity result in series [3] is reported as “Non-toxic”. Moreover, the ED50 with Mus musculus [2] is 17.1 mg/kg. Moreover, the Ki on Adenosine receptor A2a is 10.5 nM; at Adenosine receptor A1, 40 nM.

In the case of `Nc1nc(-c2nccs2)c2c(n1)-c1ccccc1C2=O`, on Adenosine receptor A2a, the Ki was 0.5 nM. The inhibition entry in the series on Mus musculus [1] was “inactive”.

Molecule `Nc1nc(-c2ccc(F)cc2)c2c(n1)-c1cc(CN3CCCC3)ccc1C2=O` had an ED50 with Mus musculus [2] of 1.6 mg/kg. Moreover, the Ki came out at 12.8 nM at Adenosine receptor A2a and 66.2 nM at Adenosine receptor A1.

Consider `COc1ccccc1-c1nc(N)nc2c1C(=O)c1ccccc1-2`, for which the Activity entry in series [3] is on record as “Non-toxic”. Also, the inhibition entry with Mus musculus [1] is “inactive”.

In the series on Mus musculus [2], `CN1CCN(Cc2cccc3c2-c2nc(N)nc(-c4ccccc4)c2C3=O)CC1` showed an ED50 of 7.8 mg/kg. The Ki was determined as 11.3 nM on Adenosine receptor A2a and 94.2 nM at Adenosine receptor A1.

In the series with Mus musculus [2], `Nc1nc(-c2ccc(F)cc2)c2c(n1)-c1cc(CN3CCCCC3)ccc1C2=O` showed an ED50 of 0.6 mg/kg. Moreover, the Ki amounted to 9.9 nM at Adenosine receptor A2a and 95.7 nM at Adenosine receptor A1.

Take `CN(C)CCN(C)Cc1cccc2c1-c1nc(N)nc(-c3ccccc3)c1C2=O`: the results for the Ki at Adenosine receptor A2a and on Adenosine receptor A1 were 40.1 nM and 119 nM, respectively. Further, in the series on Mus musculus [1], the inhibition entry was “inactive”.

In the case of `CN(C)CCN(C)Cc1ccc2c(c1)-c1nc(N)nc(-c3ccccc3)c1C2=O`, the Ki on Adenosine receptor A2a turned out to be 7.8 nM; at Adenosine receptor A1, 20 nM.

As to `Nc1nc(-c2ccc(F)cc2)c2c(n1)-c1c(CN3CCCC3)cccc1C2=O`, in the series with Mus musculus [2], it took a dose of 0.8 mg/kg to reach the 50% effect level (ED50). The results for the Ki on Adenosine receptor A2a and on Adenosine receptor A1 were 3.6 nM and 85 nM, respectively.

Turning to `COc1cccc(-c2nc(N)nc3c2C(=O)c2ccccc2-3)c1`, the Activity result in series [3] is “Non-toxic”. The Ki turned out to be 1.6 nM at Adenosine receptor A2a and 2.5 nM on Adenosine receptor A1. For the same molecule, in the series on Mus musculus [1], the inhibition entry was “inactive”.

Molecule `CN1CCN(Cc2ccc3c(c2)-c2nc(N)nc(-c4ccc(F)cc4)c2C3=O)CC1` yielded an ED50 with Mus musculus [2] of 3.5 mg/kg. Moreover, the Ki at Adenosine receptor A2a is 29.8 nM; on Adenosine receptor A1, 225 nM.

Take `Nc1nc(-c2ccc(Cl)cc2)c2c(n1)-c1ccccc1C2=O`: the Activity entry in series [3] is reported as “Non-toxic”. Moreover, the inhibition entry in the series on Mus musculus [1] is “inactive”.

On to `CC(=O)N1CCN(Cc2cccc3c2-c2nc(N)nc(-c4ccccc4)c2C3=O)CC1`, for which, in the series on Mus musculus [2], it took a dose of 10.7 mg/kg to reach the 50% effect level (ED50). Further, the inhibition constant Ki is 7.9 nM at Adenosine receptor A2a and 34.1 nM on Adenosine receptor A1.
